pIC50: −log10 of the molar value. ≈ marks a conversion by molar mass, not a printed value. Where two headings read alike, the source gives them in different places.
Key:
[1] = tested on: MtbH37Rv pncA-knock out strain; assay: microbe, parasite or virus in culture; format: cell-based, Mycobacterium tuberculosis; settings: for MIC: pH 5.2
[2] = tested on: M tb H37Rv; assay: microbe, parasite or virus in culture; format: cell-based, Mycobacterium tuberculosis; settings: pH 5.2
[3] = tested on: M tb H37Rv; assay: microbe, parasite or virus in culture; format: cell-based, Mycobacterium tuberculosis; settings: pH 6.7
[4] = tested on: Vero cells; assay: Mammalian cell toxicity assay (CellTiter 96 Non-Radioactive Cell Proliferation Assay); format: cell-based; settings: read-out: Vero cell IC50
[5] = tested on: MtbH37Rv pncA-knock out strain; assay: microbe, parasite or virus in culture; format: cell-based, Mycobacterium tuberculosis; settings: pH 6.7
[6] = tested on: Mtb H37Rv-PH-GFP; format: cell-based, Mycobacterium tuberculosis; settings: acidic medium (pH 5.2), FIG. 1-3
[7] = tested on: Mtb; settings: standard culture conditions; cited from earlier work
[8] = Mycobacterium tuberculosis, read-out: MIC 5.2 KO
[9] = Mycobacterium tuberculosis, H37RV, read-out: MIC 5.2 WT
[10] = Mycobacterium tuberculosis, H37RV, read-out: MIC 6.7 WT
[11] = Chlorocebus sabaeus, Vero, 72 h
[12] = Mycobacterium tuberculosis, read-out: MIC 6.7 KO
[13] = Chlorocebus sabaeus, Table 1, Vero cells, 72 hours

F[B-](F)(F)c1cncc(Cl)c1.[K+] [Compound 5-2, [(5-chloro-3-pyridyl)-trifluoro-boranyl] potassium(1+)]
MIC ([1]; read-out: MIC5.2KO): 50 µM | MIC ([2]; read-out: MIC5.2WT): 50 µM | MIC ([3]; read-out: MIC6.7WT): 100 µM | pIC50 ([4]; Table 1, Vero cells, 72 hours): < 4.00 | MIC ([5]; read-out: MIC6.7KO): 100 µM

N#Cc1cncc([B-](F)(F)F)c1 [Compound 11-2, potassium (5-cyanopyridin-3-yl)trifluoroborate]
MIC [1, 8]: 100 µM | MIC [2, 9]: 100 µM | MIC [3, 10]: > 200 µM | pIC50 [4, 11]: < 4.00 | MIC [5, 12]: > 200 µM

FB(F)c1cncc(N2CCCC2)n1 [Compound 7-5, potassium; difluoro-(6-pyrrolidin-1-ylpyrazin-2-yl)borane; fluoride]
MIC [1, 8]: 50 µM | MIC [2, 9]: 100 µM | MIC [3, 10]: > 200 µM | pIC50 [4, 11]: < 4.00 | MIC [5, 12]: > 200 µM

Fc1cncc([B-](F)(F)F)c1.[K+] [Compound 4-2, [trifluoro-(5-fluoro-3-pyridyl)-boranyl] potassium(1+)]
MIC ([1]; read-out: MIC5.2KO): 25 µM | MIC ([2]; read-out: MIC5.2WT): 50 µM | MIC ([3]; read-out: MIC6.7WT): 200 µM | pIC50 ([4]; Table 1, Vero cells, 72 hours): < 4.00 | MIC ([5]; read-out: MIC6.7KO): 100 µM

COc1cncc([B-](F)(F)F)n1.[K+] [Compound 2-5, [trifluoro-(6-methoxypyrazin-2-yl)-boranyl]potassium(1+)]
MIC ([1]; read-out: MIC5.2KO): 25 µM | MIC ([2]; read-out: MIC5.2WT): 50 µM | MIC ([3]; read-out: MIC6.7WT): >200 µM | pIC50 ([4]; Table 1, Vero cells, 72 hours): < 4.00 | MIC ([5]; read-out: MIC6.7KO): >200 µM

F[B-](F)(F)c1cncc(C(F)(F)F)c1 [Compound 12-3, [trifluoro-[5-(trifluoromethyl)-3-pyridyl]-boranyl]potassium(1+)]
MIC [1, 8]: 100 µM | MIC [2, 9]: 100 µM | MIC [3, 10]: > 200 µM | pIC50 [4, 13]: < 4.00 | MIC [5, 12]: > 200 µM

NNC(=O)c1ccncc1 [Isoniazid (INH), Isoniazid]
change in internal pH of Mtb [6]: does not have any effect on internal pH

NC(=O)c1cnccn1 [Pyrazinamide (PZA), Pyrazinamide, reference compound]
minimum inhibitory concentration against Mtb [7]: > 200 µM | MIC [1, 8]: > 400 µM | MIC ([1]; Mycobacterium tuberculosis, read-out: MIC5.2KO): > 400 µM | activity against pncA KO strain of Mtb ([1]; result in words): not active against an Mtb strain whose pncA is knocked out | MIC [2, 9]: 100 µM (≈ 12.3 µg/mL) | MIC ([2]; Mycobacterium tuberculosis, H37RV, read-out: MIC5.2WT): 100 µM (≈ 12.3 µg/mL) | MIC ([2]; Mycobacterium tuberculosis, H37RV, read-out: MIC against Mtb at pH 5.2): 100 to 200 µM (≈ 12.3 to 24.6 µg/mL) | change in internal pH of Mtb [6]: lowering internal pH of Mtb | MIC [3, 10]: > 400 µM | MIC ([3]; Mycobacterium tuberculosis, H37RV, read-out: MIC6.7WT): > 400 µM | MIC ([3]; Mycobacterium tuberculosis, H37RV, read-out: MIC at pH 6.7): > 400 µM | pIC50 [4, 13]: < 4.00 | pIC50 ([4]; Table 2, Vero cells, 72 hours): < 4.00 | MIC [5, 12]: > 400 µM | MIC ([5]; Mycobacterium tuberculosis, read-out: MIC6.7KO): > 400 µM
